This passage reports melting point and inhibition results from patent publication US20130065922A1, “NOVEL AMIDES AS FUNGICIDES” (priority 2010, published 2013).

Where two headings read alike, the source gives them in different places.

The subject of series [1] is Blumeria graminis f. Sp. tritici (Erysiphe graminis f. Sp. tritici). In words: Blumeria graminis f. Sp. tritici (Erysiphe graminis f. Sp. tritici)/Wheat/Leaf Disc Preventative (Powdery Mildew on Wheat). The series is classed as in vivo. The conditions noted are these: foliar, read-out: inhibit fungal infestation.
The subject of the next series is Phytophthora infestans. In words: whole plant or invertebrate. Type of series: in vivo. The conditions noted are these: in Solanum lycopersicum, foliar, read-out: inhibit fungal infestation.
The next series has as its system Pythium ultimum. In words: Pythium ultimum/Liquid Culture (Seedling Damping Off). The series is classed as cell-based. To be noted: Globisporangium ultimum, read-out: inhibit fungal infestation.
A further series has as its system Plasmopara viticola. The series can be described thus: whole plant or invertebrate. Type of series: in vivo. To be noted: foliar, read-out: inhibit fungal infestation.
The subject of series [2] is Phaeosphaeria nodorum (Septoria nodorum). In words: Phaeosphaeria nodorum (Septoria nodorum)/Wheat/Leaf Disc Preventative (Glume Blotch). Type of series: in vivo. To be noted: Parastagonospora nodorum, foliar, read-out: inhibit fungal infestation.
The mark [3] stands for this setting: 200 ppm, wheat leaf segments cv. Kanzler, preventative, 6-8 days after application, untreated control infected to over 80%.
The mark [4] stands for this setting: 200 ppm, liquid culture (PDB), 24° C., growth inhibition photometrically 2-3 days after application.
Setting [5] is: 200 ppm, wheat leaf segments cv. Kanzler, preventative, 5-7 days after application, untreated control infected to over 80%.

Turning to `COc1cnc2ccc(OC(SC)C(=O)NC(C)(C)C)cc2c1` (stereo not shown) [Compound 2, N-tert-Butyl-2-(3-methoxy-quinolin-6-yloxy)-2-methylsulfanyl-acetamide], the melting point lay within 110 to 115 °C. Further, the inhibition at 200 ppm in series [1] (setting [3]) is at least 80%. Also, in the series with Phytophthora infestans, the inhibition at 200 ppm was at least 80%. Moreover, the inhibition at 200 ppm with Pythium ultimum (setting [4]) is at least 80%.

The molecule `COCC#CC(C)(C)NC(=O)C(Oc1ccc2ncc(OC)cc2c1)SC` (stereo not shown) [Compound 4, N-(4-Methoxy-1,1-dimethyl-but-2-ynyl)-2-(3-methoxy-quinolin-6-yloxy)-2-methylsulfanyl-acetamide] registered a melting point of 95 to 98 °C. In addition, the inhibition at 200 ppm in the series on Plasmopara viticola is at least 80%. In addition, the inhibition at 200 ppm in series [1] was at least 80%. Further, the inhibition at 200 ppm with Phytophthora infestans is at least 80%. In addition, the inhibition at 200 ppm in the series on Pythium ultimum was at least 80%.

`C#CC(C)(COC)NC(=O)C(Oc1ccc2ncc(OC)cc2c1)SC` (stereo not shown) [Compound 5, N-(1-Methoxymethyl-1-methyl-prop-2-ynyl)-2-(3-methoxy-quinolin-6-yloxy)-2-methylsulfanyl-acetamide] gave a melting point of 112 to 118 °C. In series [2] (setting [5]), the inhibition at 200 ppm was at least 80%. The inhibition at 200 ppm in the series with Plasmopara viticola is at least 80%. In series [1] (setting [3]), the inhibition at 200 ppm is at least 80%. The inhibition at 200 ppm with Phytophthora infestans was at least 80%. Further, the inhibition at 200 ppm in the series on Pythium ultimum (setting [4]) is at least 80%.

Turning to `C#CC(C)(C)NC(=O)C(CC)Oc1ccc2ncc(OC)cc2c1` (stereo not shown) [Compound 7, N-(1,1-Dimethyl-prop-2-ynyl)-2-(3-methoxy-quinolin-6-yloxy)-butyramide], the melting point was 109 to 112 °C. Moreover, the inhibition at 200 ppm in series [1] (setting [3]) was at least 80%. The inhibition at 200 ppm with Phytophthora infestans was at least 80%. Besides, the inhibition at 200 ppm with Pythium ultimum (setting [4]) is at least 80%.

The molecule `CO/N=C/C(C)(C)NC(=O)C(OC)Oc1ccc2ncc(OC)cc2c1` (stereo not shown) [Compound 8, 2-Methoxy-N-(2-methoxyimino-1,1-dimethyl-ethyl)-2-(3-methoxy-quinolin-6-yloxy)-acetamide] showed a melting point of 100 to 106 °C. In series [1] (setting [3]), the inhibition at 200 ppm is at least 80%. The inhibition at 200 ppm in the series with Phytophthora infestans was at least 80%. Moreover, the inhibition at 200 ppm with Pythium ultimum (setting [4]) was at least 80%.

The molecule `C#CC(C)(C)NC(=O)C(Oc1ccc2ncc(OC)cc2c1)SC` (stereo not shown) [Compound 10, N-(1,1-Dimethyl-prop-2-ynyl)-2-(3-methoxy-quinolin-6-yloxy)-2-methylsulfanyl-acetamide] registered a melting point of 152 to 154 °C. Further, the inhibition at 200 ppm in series [2] (setting [5]) was at least 80%. In addition, in the series with Plasmopara viticola, the inhibition at 200 ppm is at least 80%. Besides, the inhibition at 200 ppm in series [1] (setting [3]) is at least 80%. Further, in the series on Phytophthora infestans, the inhibition at 200 ppm was at least 80%. Besides, the inhibition at 200 ppm in the series on Pythium ultimum (setting [4]) was at least 80%.

`CC#CC(C)(C)NC(=O)C(Oc1ccc2ncc(OC)cc2c1)SC` (stereo not shown) [Compound 11, N-(1,1-Dimethyl-but-2-ynyl)-2-(3-methoxy-quinolin-6-yloxy)-2-methylsulfanyl-acetamide] showed a melting point of 137 to 139 °C. Further, in series [2], the inhibition at 200 ppm was at least 80%. Also, in the series with Plasmopara viticola, the inhibition at 200 ppm is at least 80%. Further, the inhibition at 200 ppm in series [1] is at least 80%. In addition, the inhibition at 200 ppm in the series on Phytophthora infestans was at least 80%. Further, in the series on Pythium ultimum, the inhibition at 200 ppm is at least 80%.

As for `COc1cnc2c(C)cc(OC(SC)C(=O)NC(C)(C)C)cc2c1` (stereo not shown) [Compound 16, N-tert-Butyl-2-(3-methoxy-8-methyl-quinolin-6-yloxy)-2-methylsulfanyl-acetamide], the melting point was 147 to 150 °C. Besides, the inhibition at 200 ppm in series [2] (setting [5]) is at least 80%. For the same molecule, in series [1] (setting [3]), the inhibition at 200 ppm was at least 80%. The inhibition at 200 ppm in the series with Phytophthora infestans is at least 80%. Also, the inhibition at 200 ppm with Pythium ultimum (setting [4]) is at least 80%.

In turn, `COCC(C)(C#N)NC(=O)C(Oc1cc(C)c2ncc(OC)cc2c1)SC` (stereo not shown) [Compound 18, N-(1-Cyano-2-methoxy-1-methyl-ethyl)-2-(3-methoxy-8-methyl-quinolin-6-yloxy)-2-methylsulfanyl-acetamide] returned a melting point of 123 to 129 °C. Further, the inhibition at 200 ppm in the series on Plasmopara viticola was at least 80%. The inhibition at 200 ppm in series [1] (setting [3]) is at least 80%. For the same molecule, the inhibition at 200 ppm in the series on Phytophthora infestans is at least 80%. Also, the inhibition at 200 ppm with Pythium ultimum (setting [4]) was at least 80%.

Consider `C#CC(C)(C#C)NC(=O)C(Oc1cc(C)c2ncc(OCC)cc2c1)SC` (stereo not shown) [Compound 23, 2-(3-Ethoxy-8-methyl-quinolin-6-yloxy)-N-(1-ethynyl-1-methyl-prop-2-ynyl)-2-methylsulfanyl-acetamide], for which the melting point was 143 to 145 °C. For the same molecule, the inhibition at 200 ppm in series [2] (setting [5]) is at least 80%. For the same molecule, in the series with Plasmopara viticola, the inhibition at 200 ppm is at least 80%. Further, the inhibition at 200 ppm in series [1] (setting [3]) is at least 80%. The inhibition at 200 ppm in the series on Pythium ultimum (setting [4]) is at least 80%.

In turn, `C#CC(C)(C)NC(=O)C(Oc1cc(C)c2ncc(OCC)cc2c1)SC` (stereo not shown) [Compound 25, N-(1,1-Dimethyl-prop-2-ynyl)-2-(3-ethoxy-8-methyl-quinolin-6-yloxy)-2-methylsulfanyl-acetamide] registered a melting point of 160 to 162 °C. In addition, the inhibition at 200 ppm in series [2] (setting [5]) was at least 80%. For the same molecule, the inhibition at 200 ppm in the series with Plasmopara viticola is at least 80%. For the same molecule, in series [1] (setting [3]), the inhibition at 200 ppm is at least 80%. For the same molecule, in the series with Pythium ultimum (setting [4]), the inhibition at 200 ppm is at least 80%.

Consider `CCOc1cnc2ccc(OC(SC)C(=O)NC(C)(C)C)cc2c1` (stereo not shown) [Compound 26, N-tert-Butyl-2-(3-ethoxy-quinolin-6-yloxy)-2-methylsulfanyl-acetamide], for which the melting point is 120 to 123 °C. In series [2] (setting [5]), the inhibition at 200 ppm is at least 80%. Also, in series [1] (setting [3]), the inhibition at 200 ppm is at least 80%. Besides, in the series with Pythium ultimum (setting [4]), the inhibition at 200 ppm was at least 80%.

The molecule `C#CC(C)(C)NC(=O)C(CC)Oc1ccc2ncc(SC)cc2c1` (stereo not shown) [Compound 29, N-(1,1-Dimethyl-prop-2-ynyl)-2-(3-methylsulfanyl-quinolin-6-yloxy)-butyramide] showed a melting point of 121 to 123 °C. In addition, in the series on Plasmopara viticola, the inhibition at 200 ppm is at least 80%. In addition, the inhibition at 200 ppm in series [1] (setting [3]) is at least 80%. For the same molecule, in the series on Phytophthora infestans, the inhibition at 200 ppm is at least 80%. The inhibition at 200 ppm in the series with Pythium ultimum (setting [4]) is at least 80%.

Take `CCC(Oc1ccc2ncc(SC)cc2c1)C(=O)NC(C)(C)C` (stereo not shown) [Compound 30, N-tert-Butyl-2-(3-methylsulfanyl-quinolin-6-yloxy)-butyramide]: the melting point is 113 to 115 °C. The inhibition at 200 ppm in the series on Plasmopara viticola is at least 80%. Moreover, in series [1] (setting [3]), the inhibition at 200 ppm was at least 80%. Also, the inhibition at 200 ppm with Phytophthora infestans is at least 80%. Further, in the series on Pythium ultimum (setting [4]), the inhibition at 200 ppm was at least 80%.

The molecule `C#CC(C)(C)NC(=O)C(Oc1cc(Cl)c2ncc(SC)cc2c1)SC` (stereo not shown) [Compound 32, 2-(8-Chloro-3-methylsulfanyl-quinolin-6-yloxy)-N-(1,1-dimethyl-prop-2-ynyl)-2-methylsulfanyl-acetamide] showed a melting point of 157 to 159 °C. For the same molecule, in the series on Plasmopara viticola, the inhibition at 200 ppm was at least 80%. Besides, the inhibition at 200 ppm in the series on Phytophthora infestans is at least 80%. Moreover, the inhibition at 200 ppm with Pythium ultimum (setting [4]) is at least 80%.

As to `CC#CC(C)(C)NC(=O)C(Oc1cc(Cl)c2ncc(SC)cc2c1)SC` (stereo not shown) [Compound 33, 2-(8-Chloro-3-methylsulfanyl-quinolin-6-yloxy)-N-(1,1-dimethyl-but-2-ynyl)-2-methylsulfanyl-acetamide], the melting point lay within 153 to 155 °C. Moreover, the inhibition at 200 ppm in the series on Plasmopara viticola is at least 80%. In the series with Phytophthora infestans, the inhibition at 200 ppm is at least 80%. In addition, the inhibition at 200 ppm with Pythium ultimum is at least 80%.

Molecule `C#CC(C)(C)NC(=O)C(CC)Oc1cc(C)c2ncc(SC)cc2c1` (stereo not shown) [Compound 37, N-(1,1-Dimethyl-prop-2-ynyl)-2-(8-methyl-3-methylsulfanyl-quinolin-6-yloxy)-butyramide] yielded a melting point of 134 to 136 °C. Further, the inhibition at 200 ppm in series [2] (setting [5]) was at least 80%. Besides, the inhibition at 200 ppm in the series on Plasmopara viticola is at least 80%. The inhibition at 200 ppm with Pythium ultimum (setting [4]) was at least 80%.

For the molecule `C#CC(C)(C=C)NC(=O)C(Oc1ccc2ncc(SC)cc2c1)SC` (stereo not shown) [Compound 63, N-(1-Ethynyl-1-methyl-allyl)-2-methylsulfanyl-2-(3-methylsulfanyl-quinolin-6-yloxy)-acetamide], the melting point was in the range of 121 to 123 °C. For the same molecule, in the series on Plasmopara viticola, the inhibition at 200 ppm is at least 80%. For the same molecule, in the series on Phytophthora infestans, the inhibition at 200 ppm was at least 80%. In addition, in the series with Pythium ultimum (setting [4]), the inhibition at 200 ppm is at least 80%.

Molecule `CCSc1cnc2ccc(OC(SC)C(=O)NC(C)(C)/C=N/OC)cc2c1` (stereo not shown) [Compound 64, 2-(3-Ethylsulfanyl-quinolin-6-yloxy)-N-(2-methoxyimino-1,1-dimethyl-ethyl)-2-methylsulfanyl-acetamide] had a melting point of 105 to 107 °C. In addition, the inhibition at 200 ppm in the series on Plasmopara viticola was at least 80%. In addition, the inhibition at 200 ppm in series [1] (setting [3]) was at least 80%. Also, the inhibition at 200 ppm in the series on Phytophthora infestans is at least 80%. Moreover, in the series with Pythium ultimum (setting [4]), the inhibition at 200 ppm was at least 80%.

Take `CSc1cnc2ccc(OC(SC)C(=O)NC(C)(C#N)C3CC3)cc2c1` (stereo not shown) [Compound 65, N-(Cyano-cyclopropyl-methyl-methyl)-2-methylsulfanyl-2-(3-methyl-sulfanyl-quinolin-6-yloxy)-acetamide]: the inhibition at 200 ppm (in series [2] (setting [5]); with Plasmopara viticola; with Phytophthora infestans; in the series with Pythium ultimum (setting [4])) was at least 80% in each case.

Regarding `CSc1cnc2ccc(OC(SC)C(=O)NC(C)(C)C#N)cc2c1` (stereo not shown) [Compound 68, N-(Cyano-dimethyl-methyl)-2-methylsulfanyl-2-(3-methylsulfanyl-quinolin-6-yloxy)-acetamide], the inhibition at 200 ppm in the series with Plasmopara viticola, in the series on Phytophthora infestans and in the series on Pythium ultimum (setting [4]) was at least 80% each time.

Broadly, the melting point is the temperature of the solid-liquid transition.
